Common to all, as to assay type: cell-based, Himalayan Yew
Assay [1] deals with callus tissues of Taxus baccata ssp. Wallichiana Zucc. Pilg. In words: Growth of callus tissues on Picloram supplemented media. As to conditions: compared to media supplemented with other auxins reported earlier in the literature. From the text: (§1) Thus the combination of the modified medium of the present invention with Picloram, Sucrose, Phytagel and Antioxidants is novel and conducive for good callus growth and Taxane production in vitro. The details are described herewith. The present invention also provides a process for the enhanced production of taxol and/or taxane class of molecules in the said callus cultures which comprises inoculating any plant part of the Himalayan yew in the said culture medium for a period of 30 to 60 days in dark and at a temperature ranging between 24-26° C., to obtain the undifferentiated mass of callus culture, extracting the product by conventional solvent extraction methods and analyzing the compounds by HPLC. The stems, needles and seeds (for excision of embryos and endosperms) derived from mature trees of Taxus baccata ssp. Wallichiana Zucc. Pilg., Himalayan Yew were first washed in soap water for five min. followed by 95% ethanol treatment for one min. The alcohol was washed off with four washes of double distilled water. Surface sterilization was done with 0.1% HgCl2 for 10 min. under vacuum followed by six washes with sterile distilled water. Following this, the explants were inoculated aseptically in pre-sterilized plastic dishes (55-mm diameter) containing the medium of the present invention. The medium was prepared by mixing constituents mentioned in Tables 1 and 2. […]

The test system of assay [2] is callus lines of Taxus baccata ssp. Wallichiana Zucc. Pilg. In words: Taxane/taxol production in callus cultures, HPLC analysis. From the text:
Thus the combination of the modified medium of the present invention with Picloram, Sucrose, Phytagel and Antioxidants is novel and conducive for good callus growth and Taxane production in vitro. The details are described herewith. The present invention also provides a process for the enhanced production of taxol and/or taxane class of molecules in the said callus cultures which comprises inoculating any plant part of the Himalayan yew in the said culture medium for a period of 30 to 60 days in dark and at a temperature ranging between 24-26° C., to obtain the undifferentiated mass of callus culture, extracting the product by conventional solvent extraction methods and analyzing the compounds by HPLC. The stems, needles and seeds (for excision of embryos and endosperms) derived from mature trees of Taxus baccata ssp. Wallichiana Zucc. Pilg., Himalayan Yew were first washed in soap water for five min. followed by 95% ethanol treatment for one min. The alcohol was washed off with four washes of double distilled water. Surface sterilization was done with 0.1% HgCl2 for 10 min. under vacuum followed by six washes with sterile distilled water. Following this, the explants were inoculated aseptically in pre-sterilized plastic dishes (55-mm diameter) containing the medium of the present invention.
The culture medium and method described in the present invention was tested on ex-plants of a number of matures trees (80-100 year old) collected from the Himalayas. The present protocol is applicable to all the ex-plants derived from all these trees of varying ages and genotypes. A series of callus lines were initiated and currently various callus lines of different ages produce the desirable taxanes. A number of callus lines of different ages and derived from diverse parent trees were analyzed by HPLC for detection of taxane class of molecules. […] For each of the callus lines, extractions were performed at least on three different occasions and duplicate HPLC injections were made on separate days to check for the reproducibility of the results.

Assay [3] deals with ex-plants of Taxus baccata ssp. Wallichiana Zucc. Pilg. As to the kind of experiment: Callus induction from ex-plants of mature trees. As to conditions: with or without antioxidants.
Excerpt: as §1

For `Nc1c(Cl)c(Cl)nc(C(=O)O)c1Cl` [Picloram], the “enhanced growth rate of callus tissues” value in assay [1] was 1.5-2.0 times. In addition, the “taxol content of callus” value in assay [2] (0.5-2 mg.l^-1 picloram, callus lines derived from needles of tree nos. 2, 6 and 7) was 190-300 μg taxol/g dry weight; in assay [2] (4-6 mg.l^-1 picloram, callus line 6 derived from needles), 500-590 μg taxol/g dry weight. Moreover, in assay [2] (0.5-2 mg.l^-1 picloram, needles 0.934 μg taxol/g dry weight), the “increase of taxol content in vitro than in vivo material” value fell in the range of 203 to 321 times. In addition, the “increase of taxol content compared to the in vivo material” value in assay [2] (4-6 mg.l^-1 picloram, callus line 6, needles 0.0941 μg taxol/g dry weight) is on record as 5300-6200 times. For the same compound, the “enhanced Taxane production” value in assay [2] (calli grown in Picloram supplemented media, compared to media supplemented with other auxins) is given as 2.0-5.4 times. The “Taxol production relative to in vivo needle tissues” value in assay [2] (highest producer callus) is around 5000 times. Besides, the “Callus formation observed in ex-plants” value is 90% in assay [3] (0.5-2 mg.l^-1 picloram, tree nos. 2, 6 and 7); 90% in assay [3] (4-6 mg.l^-1 picloram, tree nos. 1, 3 and 4).

These data come from US6365407B1, “Culture medium composition useful for induction and proliferation of Taxus calli” (Council of Scientific & Industrial Research, priority 2001, dated 2002).
